Experimental data: US8853230B2, “Inhibitors of JAK” (Portola Pharmaceuticals, Inc., priority 2009, dated 2014)

Key:
Syk = Syk (Homo sapiens, UniProt P43405); test: Syk IC50 (Table 1; method not given); format: biochemical
[1] = system: IL4-induced phospho STAT6 formation in Ramos B lymphocytes; test: Inhibition of IL4-induced phospho STAT6 formation in Ramos B lymphocytes (flow cytometry); format: cell-based, human; conditions: for inhibition at 0.2 µM / inhibition at 1 µM: Homo sapiens; for inhibition at 0.2 µM: read-out: % Inhibition of IL-4 Induced STAT6 Phosphorylation 200 nM; for inhibition at 1 µM: read-out: % Inhibition of IL-4 Induced STAT6 Phosphorylation 1 μM
From the text: Similar types of assays can be used to assess JAK inhibitory activity and to determine the degree of selectivity of the particular compound as compared to syk. One means of assaying for such inhibition is detection of the effect of the compounds of the present invention on the upregulation of downstream gene products. In the Ramos/IL4 assay, B-cells are stimulated with the cytokine Interleukin-4 (IL-4) leading to the activation of the JAK/Stat pathway through phosphorylation of the JAK family kinases, JAK1 and JAK3, which in turn phosphorylate and activate the transcription factor Stat-6. […] To study the effect of inhibitors (e.g., the 2,4-substituted pyrimindinediamine compounds described herein) on the JAK1 and JAK3, human Ramos B-cells are stimulated with human IL-4. 10′ post-stimulation, cells are subjected to intracellular flow cytometry to measure the extent of STAT-6 phosphorylation. 20 to 24 hours post-stimulation, cells are stained for upregulation of CD23 and analyzed using flow cytometry.
Inhibition of IL4-induced phospho STAT6 formation was measured by pre-incubating 0.5 million Ramos B lymphocytes (ATCC) with 5 μl compound or DMSO vehicle for 1 hour at 37° C./5% CO2. Cells were activated by addition of 1 ng/ml [f]IL4 (R & D Research Systems) for 10 min at 37° C./5% CO2 and then fixed by addition of 1.6% [f]PFA (Electron Microscopy Services). Following a PBS wash step and permaeabilization with 100% methanol, cells were incubated with ALEXA-conjugated anti-phosphoSTAT6 (Y641) antibody (BD 612600). The extent of cell associated-fluorescence was determined by flow cytomentry and data expressed as mean fluorescent intensity. The extent of inhibition of the IL4-induced signal was then calculated.

JAK1 = biological target: T1, JAK1 (Homo sapiens, UniProt P23458); test: Z'-LYTE kinase assay, JAK1 tyrosine phosphorylation activity; format: biochemical; conditions: read-out: JAK 1 IC50
T1 construct: 5 μl of catalytic domain recombinant Kinase enzyme+Tyr peptide substrate (Invitrogen, Calif.); purchased Invitrogen
Summary of the method: (§1)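 FRET read-out (ex 400 nm, em 445 and 520 nm) after protease cleavage of non-phosphorylated Tyr6 peptide. Kinase step: catalytic-domain enzyme, peptide, ATP and compound, 1 h at RT, 1% DMSO. IC50 from a 4-parameter logistic fit of percent phosphorylation versus uninhibited control.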

JAK2 = biological target: T2, JAK2 (Homo sapiens, UniProt O60674); test: Z'-LYTE kinase assay, JAK2 tyrosine phosphorylation activity; format: biochemical
T2 construct: 5 μl of catalytic domain recombinant Kinase enzyme+Tyr peptide substrate (Invitrogen, Calif.); purchased Invitrogen
Summary of the method: as §1

JAK3 = biological target: T3, JAK3 (Homo sapiens, UniProt P52333); test: Z'-LYTE kinase assay, JAK3 tyrosine phosphorylation activity; format: biochemical
T3 construct: 5 μl of catalytic domain recombinant Kinase enzyme+Tyr peptide substrate (Invitrogen, Calif.); purchased Invitrogen
Summary of the method: as §1

TYK2 = biological target: T4, TYK2 (Homo sapiens, UniProt P29597); test: Z'-LYTE kinase assay, TYK2 tyrosine phosphorylation activity; format: biochemical
T4 construct: 5 μl of catalytic domain recombinant Kinase enzyme+Tyr peptide substrate (Invitrogen, Calif.); purchased Invitrogen
T4 sequence (P29597 897-1176 limits assumed): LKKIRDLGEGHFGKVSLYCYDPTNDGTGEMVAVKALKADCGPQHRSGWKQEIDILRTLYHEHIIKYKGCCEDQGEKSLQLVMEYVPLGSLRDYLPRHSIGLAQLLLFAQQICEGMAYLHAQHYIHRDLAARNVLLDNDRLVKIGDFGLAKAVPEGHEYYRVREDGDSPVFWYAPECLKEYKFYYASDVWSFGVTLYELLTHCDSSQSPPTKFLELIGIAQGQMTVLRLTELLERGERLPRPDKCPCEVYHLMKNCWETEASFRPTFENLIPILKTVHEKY
Summary of the method: as §1

T2 sequence (O60674 849-1124 limits assumed): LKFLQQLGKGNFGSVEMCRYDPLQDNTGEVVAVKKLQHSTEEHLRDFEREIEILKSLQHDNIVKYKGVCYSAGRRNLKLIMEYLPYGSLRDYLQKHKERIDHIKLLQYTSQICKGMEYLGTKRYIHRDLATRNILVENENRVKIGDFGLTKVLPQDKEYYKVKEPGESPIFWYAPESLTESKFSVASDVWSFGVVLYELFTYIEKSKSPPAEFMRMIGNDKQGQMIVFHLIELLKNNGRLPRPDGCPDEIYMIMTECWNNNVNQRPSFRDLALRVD
T3 sequence (P52333 822-1111 limits assumed): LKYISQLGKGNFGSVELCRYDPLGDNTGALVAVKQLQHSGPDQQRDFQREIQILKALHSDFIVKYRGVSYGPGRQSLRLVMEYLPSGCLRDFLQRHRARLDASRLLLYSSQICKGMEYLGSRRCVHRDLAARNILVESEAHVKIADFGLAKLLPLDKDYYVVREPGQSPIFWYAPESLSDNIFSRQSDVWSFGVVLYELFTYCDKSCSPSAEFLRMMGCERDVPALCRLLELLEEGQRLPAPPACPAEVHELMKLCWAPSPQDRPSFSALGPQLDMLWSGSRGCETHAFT
T1 sequence (P23458 875-1153 limits assumed): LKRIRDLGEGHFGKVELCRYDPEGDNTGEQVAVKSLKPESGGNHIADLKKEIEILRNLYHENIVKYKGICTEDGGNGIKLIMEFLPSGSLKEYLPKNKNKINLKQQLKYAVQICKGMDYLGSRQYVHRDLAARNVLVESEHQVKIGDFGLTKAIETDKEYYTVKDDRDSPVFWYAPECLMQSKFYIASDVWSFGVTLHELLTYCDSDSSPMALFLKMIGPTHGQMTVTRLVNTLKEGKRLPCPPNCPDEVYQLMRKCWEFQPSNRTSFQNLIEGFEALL

IC50 (Syk) | IC50 (JAK1) | IC50 (JAK2) | IC50 (JAK3) | IC50 (TYK2) | Molecule | inhibition at 0.2 µM ([1]; 200 nM compound) | inhibition at 1 µM ([1]; 1 μM compound) | % Inhibition of IL-4 Induced STAT6 Phosphorylation 200 nM ([1]; 200 nM compound) | % Inhibition of IL-4 Induced STAT6 Phosphorylation 1 μM ([1]; 1 μM compound)
 | 10 to 100 nM | 10 to 100 nM | 1 to 10 nM | 1 to 10 nM | COC[C@H]1CCCN1C(=O)Nc1cccc(Nc2ncc(C(N)=O)c(NCc3ccccc3)n2)c1 [Example 147, (R)-4-(benzylamino)-2-(3-(2-(methoxymethyl)pyrrolidine-1-carboxamido)phenylamino)pyrimidine-5-carboxamide] | 28.7% | 82% |  | 
 | 10 to 100 nM | 10 to 100 nM | 1 to 10 nM | 10 to 100 nM | NC(=O)c1cnc(Nc2cccc(NC(=O)N3CCCC3)c2)nc1NCc1cccc(F)c1 [Example 179, 4-(3-fluorobenzylamino)-2-(3-(pyrrolidine-1-carboxamido)phenylamino)pyrimidine-5-carboxamide] | 11.3% | 10.7% |  | 
 | > 1000 nM | > 1000 nM | 1 to 10 nM | 100 to 1000 nM | NC(=O)c1cnc(Nc2ccc(Cl)c(NC(=O)N3CCCCC3)c2)nc1NCc1ccccc1 [Example 209, 4-(benzylamino)-2-(4-chloro-3-(piperidine-1-carboxamido)phenylamino)pyrimidine-5-carboxamide] | 0.3% | 1% |  | 
 | 10 to 100 nM | 10 to 100 nM | 1 to 10 nM | 10 to 100 nM | NC(=O)c1cnc(Nc2ccc(F)c(NC(=O)N3CCC3)c2)nc1NCc1ccccc1 [Example 234, 2-(3-(azetidine-1-carboxamido)-4-fluorophenylamino)-4-(benzylamino)pyrimidine-5-carboxamide] | 34.3% | 77% |  | 
 | 10 to 100 nM | 10 to 100 nM | 1 to 10 nM | 1 to 10 nM | NC(=O)c1cnc(Nc2cccc(NC(=O)C3CCOC3)c2)nc1NCc1ccccc1 (stereo not drawn) [Example 203, 4-(benzylamino)-2-(3-(tetrahydrofuran-3-carboxamido)phenylamino)pyrimidine-5-carboxamide] | 80% | 106% |  | 
 | 10 to 100 nM | 10 to 100 nM | 1 to 10 nM | 1 to 10 nM | NC(=O)c1cnc(Nc2cccc(NC(=O)[C@H]3CCCO3)c2)nc1NCc1ccccc1 [Example 202, (R)-4-(benzylamino)-2-(3-(tetrahydrofuran-2-carboxamido)phenylamino)pyrimidine-5-carboxamide] | 23.5% | 48.5% |  | 
 | 10 to 100 nM | 10 to 100 nM | 1 to 10 nM | 1 to 10 nM | NC(=O)c1cnc(Nc2cccc(NC(=O)N3CC[C@H](O)C3)c2)nc1NCc1ccccc1 [Example 143, (S)-4-(benzylamino)-2-(3-(3-hydroxypyrrolidine-1-carboxamido)phenylamino)pyrimidine-5-carboxamide] | 44.7% | 85.7% |  | 

More lines, now with the values behind:

Molecule | IC50 (Syk) | IC50 (JAK1) | IC50 (JAK2) | IC50 (JAK3) | IC50 (TYK2) | inhibition at 0.2 µM ([1]; 200 nM compound) | inhibition at 1 µM ([1]; 1 μM compound) | % Inhibition of IL-4 Induced STAT6 Phosphorylation 200 nM ([1]; 200 nM compound) | % Inhibition of IL-4 Induced STAT6 Phosphorylation 1 μM ([1]; 1 μM compound)
CC(=O)Nc1cccc(Nc2ncc(C(N)=O)c(NC(C)C)n2)c1 [Example 11, 2-(3-acetamidophenylamino)-4-(isopropylamino)pyrimidine-5-carboxamide] | 100 to 1000 nM |  |  |  |  |  |  |  | 
C#CCNc1nc(Nc2cccc(NC(C)=O)c2)ncc1C(N)=O [Example 10, 2-(3-acetamidophenylamino)-4-(prop-2-ynylamino)pyrimidine-5-carboxamide] | 100 to 1000 nM |  |  |  |  |  |  |  | 
CC(=O)Nc1cccc(Nc2ncc(C(N)=O)c(NC(C)(C)C)n2)c1 [Example 13, 2-(3-acetamidophenylamino)-4-(tert-butylamino)pyrimidine-5-carboxamide] | 100 to 1000 nM |  |  |  |  |  |  |  | 
COCCNc1nc(Nc2cccc(NC(C)=O)c2)ncc1C(N)=O [Example 14, 2-(3-acetamidophenylamino)-4-(2-methoxyethylamino)pyrimidine-5-carboxamide] | 100 to 1000 nM |  |  |  |  |  |  |  | 
CNc1nc(Nc2cccc(NC(C)=O)c2)ncc1C(N)=O [Example 8, 2-(3-acetamidophenylamino)-4-(methylamino)pyrimidine-5-carboxamide] | 100 to 1000 nM |  |  |  |  |  |  |  | 
CNC(=O)Nc1cccc(Nc2ncc(C(N)=O)c(NCc3ccccc3F)n2)c1 [Example 181, 4-(2-fluorobenzylamino)-2-(3-(3-methylureido)phenylamino)pyrimidine-5-carboxamide] |  | 10 to 100 nM | 10 to 100 nM | 1 to 10 nM | 1 to 10 nM | 23.7% | 38.7% |  | 
C[C@@H](Nc1nc(Nc2ccc(Cl)c(NC(=O)N3CCCC3)c2)ncc1C(N)=O)c1ccccc1 [Example 221, (R)-2-(4-chloro-3-(pyrrolidine-1-carboxamido)phenylamino)-4-(1-phenylethylamino)pyrimidine-5-carboxamide] |  | > 1000 nM | 100 to 1000 nM | 10 to 100 nM | 100 to 1000 nM | 2.3% | 6.3% |  | 
CCNc1nc(Nc2cccc(NC(C)=O)c2)ncc1C(N)=O [Example 9, 2-(3-acetamidophenylamino)-4-(ethylamino)pyrimidine-5-carboxamide] | 100 to 1000 nM |  |  |  |  |  |  |  | 
CC(=O)Nc1cccc(Nc2cc(NCc3ccccc3)c(C(N)=O)cn2)c1 [Example 213, 6-(3-acetamidophenylamino)-4-(benzylamino)nicotinamide] |  | 100 to 1000 nM | 100 to 1000 nM | 10 to 100 nM | 100 to 1000 nM | 11.3% | 35.3% |  | 
COCC(=O)Nc1ccc(F)c(Nc2ncc(C(N)=O)c(NCc3ccccc3)n2)c1 [Example 172, 4-(benzylamino)-2-(2-fluoro-5-(2-methoxyacetamido)phenylamino)pyrimidine-5-carboxamide] |  | 100 to 1000 nM | 100 to 1000 nM | 10 to 100 nM | 100 to 1000 nM | 11.3% | 33% |  | 
2-(3-(azetidine-1-carboxamido)phenylamino)-4-(benzylamino)pyrimidine-5-carboxamide [Example 219] |  | 10 to 100 nM | 10 to 100 nM | 1 to 10 nM | 10 to 100 nM |  |  | 19.0% | 65.3%
C[C@@H](Nc1nc(Nc2cccc(NC(=O)N3CCC[C@@H]3C)c2)ncc1C(N)=O)c1ccccc1 [Example 137, 2-(3-((S)-2-methylpyrrolidine-1-carboxamido)phenylamino)-4-((R)-1-phenylethylamino)pyrimidine-5-carboxamide] |  | 100 to 1000 nM | 10 to 100 nM | 1 to 10 nM | 10 to 100 nM | 14.7% | 57.3% |  | 
CNC(=O)Nc1cc(Nc2ncc(C(N)=O)c(NCc3ccccc3)n2)ccc1OC [Example 164, 4-(benzylamino)-2-(4-methoxy-3-(3-methylureido)phenylamino)pyrimidine-5-carboxamide] |  | 10 to 100 nM | 10 to 100 nM | 1 to 10 nM | 1 to 10 nM | 34.7% | 68.7% |  | 
C[C@@H](Nc1nc(Nc2ccc(Cl)c(NC(N)=O)c2)ncc1C(N)=O)c1ccccc1 [Example 193, (R)-2-(4-chloro-3-ureidophenylamino)-4-(1-phenylethylamino)pyrimidine-5-carboxamide] |  | 100 to 1000 nM | 100 to 1000 nM | 1 to 10 nM | 100 to 1000 nM | 13.7% | 51.3% |  | 
